The values that follow are results of earlier work, collected in patent US10543277B2, “Formulation of curcumin with enhanced bioavailability of curcumin and method of preparation and treatment thereof” (ARJUNA NATURAL PRIVATE LIMITED, priority 2005, dated 2020).

Structures are written as SMILES.

In one data set the test system is oral premalignancy. As to conditions: for responded to maintenance therapy or continued to have stable lesions / subjects who responded to maintenance therapy or continued to have stable lesions: maintenance phase; for subjects who responded to maintenance therapy or continued to have stable lesions: 53 evaluable.
Data set [1] has as its system LOX (lipoxygenase) pathway. As to conditions: 10 μM.
In another data set the test system is COX pathway. The settings on record: 10 μM.
[2] abbreviates: among the 24 13-cRA subjects, 1-2 mg/kg/day for three months.

As for `CC1=C(/C=C/C(C)=C/C=C/C(C)=C\C(=O)O)C(C)(C)CCC1` [13-cRA, 13-cis-retinoic acid], in the data set on OPLs (setting [2]), the “subjects with complete responses” value is 2 and the “subjects with partial responses” value is 14. For the same compound, the “relapse after end of therapy” value with OPLs (in vivo) is given as 2-3 months. Besides, in the data set on OPLs (receiving 2 mg/kg), the “subjects with intolerable conjunctivitis and hypertriglyceridemia” value is 2. Further, in the data set on oral premalignancy (high-dose induction therapy), the “rate of response at the conclusion of induction” value is 55% and the “rate of stable disease at the conclusion of induction” value is 35%. Further, in the data set on oral premalignancy, the “responded to maintenance therapy or continued to have stable lesions” value is 92% and the “subjects who responded to maintenance therapy or continued to have stable lesions” value was 22.

For the compound `COc1cc(/C=C/C(=O)CC(=O)/C=C/c2ccc(O)c(OC)c2)ccc1O` [Curcumin, 1,7-bis(4-hydroxy-3-methoxyphenyl)-1,6-heptadiene-3,5-dione], in data set [1], the “inhibition of conversion of arachidonic acid to 5-hydroxyeicosatetraenoic acid” value is recorded as 60% and the “inhibition of conversion of arachidonic acid to 8-hydroxyeicosatetraenoic acid” value is 51%. Besides, in the data set on COX pathway, the “inhibition of metabolism of arachidonic acid to PGD2” value is 73%, the “inhibition of metabolism of arachidonic acid to PGE2” value is 70% and the “inhibition of metabolism of arachidonic acid to PGF2α” value is 64%.

In the case of `CC1=C(/C=C/C(C)=C/C=C/C(C)=C/C=C/C=C(C)/C=C/C=C(C)/C=C/C2=C(C)CCCC2(C)C)C(C)(C)CCC1` [β-carotene], in the data set on oral premalignancy, the “responded to maintenance therapy or continued to have stable lesions” value is on record as 45% and the “subjects who responded to maintenance therapy or continued to have stable lesions” value is listed as 13.
